Reference: patent US5773424A, “Treatment of toxoplasmosis” (priority 1994, dated 1998)
Entries after “also recorded” stand apart in the source; their conditions may differ. Where two headings read alike, the source gives them in different places.

Columns and labels:
[1] = Toxicity of compounds, MTT assay; type: cell-based, human; conditions: human, foreskin fibroblasts, MTT, 48 hours, read-out: percent survival of uninfected human fibroblasts
Method: (§1) Toxicity of compounds. Toxicity of the different doses of the various analogues were performed at least in triplicates, using a modification of the Microculture Tetrazolium (MTT) assay and uninfected monolayers of human foreskin fibroblasts. Briefly, confluent cells were incubated for at least 24 hours in the 96-well flat bottom microtiterplates (~10^5 /200 μL/well) and incubated at 37° C. in 5% CO2, 95% air to allow the cells to attach. The medium was then replaced with 200 μL of fresh medium. […] The cultures were then incubated for 48 hours, after which 50 μL of sterile MTT solution (2 mg/1 mL PBS) was added to each well. MTT solution was sterilized by filtration through 0.22 μm filters (Costar, Cambridge, Mass.). After 4 hours incubation, the medium was removed and 100 μL of dimethylsulfoxide (DMSO) was added to each well and the plates were shaken gently for 2-3 minutes to dissolve the formed formazan crystals. The absorbance was measured at 540 nm, using a computerized microtiterplate reader (Themomax, Molecular Division)

[2] = system: Toxoplasma gondii grown in human fibroblasts; experiment: Incorporation of radiolabeled uracil (parasite survival); type: cell-based; conditions: for activity at 5 µM / activity at 10 µM / activity at 25 µM / activity at 50 µM: Toxoplasma gondii, Fibroblast, read-out: percent survival of Toxoplasma gondii grown in human fibroblasts
Method: Incorporation of Radiolabeled Uracil. […] Uptake and incorporation of radiolabeled uracil into nucleic acids of T. gondii were carried out, at least in triplicates, in tissue culture, using monolayers of human foreskin fibroblasts infected with T. gondii. The fibroblasts were cultured in no more than 30 passages in Dulbecco's modified Eagle medium, containing 100 units/mL penicillin G and 100 μg/mL streptomycin sulfate, and 10% FBS, pH 7.2. Briefly, confluent cells (4-5 day incubation) were cultured for 24 hours in the 24-well flat bottom microtiterplates (~5×10^5 /1 mL/well) and incubated at 37° C. in 5% CO2, 95% air to allow the cells to attach. The medium was then removed and the cells were infected with isolated T. gondii in medium with 3% FBS (1 parasite/cell). After 1 hour incubation, the cultures were washed with media with 10% FBS to remove extracellular parasites. FBS was maintained at a final concentration of 10%. […] After an additional 18 hours incubation, the medium was replaced with 1 mL drug free media containing […] (2 μCi/mL) and incubated for another 6 hours, after which the media was removed. The fibroblasts were released from the wells by trypsinization with the addition of 200 μL trypsin/EDTA (2.5×) to each well. After 10 minutes incubation, 1 mL of ice cold 10% trichloroacetic acid (TCA) was added to each well. The plates were then placed on a shaker to insure the detachment of the cells. The suspended contents of each well were filtered through GF/A 2.4 cm glass microfiber filters (Whatman, Hillsboro, Oreg.), which were prewashed each with 1 mL double distilled H2 O and dried. After filtration, the filters were washed with 10 mL methanol, left to dry, and then placed in scintillation vials containing 5 mL of Econo-Safe scintillation fluor (Research Products International Corp., Mount Prospect, Ill.), and radioactivity was counted using an LS5801 Beckman scintillation counter.

[3] = system: uninfected human foreskin fibroblasts; experiment: Toxicity of compounds, MTT assay; type: cell-based; conditions: for Toxicity to host cells (human fibroblasts), in words: therapeutic doses (5-50 μM tested)
Method: as §1

[4] = system: Toxoplasma gondii RH strain tachyzoites; experiment: Chemotherapy of Toxoplasma-infected mice; type: in vivo
Method: Chemotherapy of Toxoplasma-Infected Mice. Female CD-1 mice, approximately 22 g (Charles River Laboratories, Wilmington, Mass.), were infected with 200 RH strain tachyzoites/mouse by i.p. injection. The treatment group received 100 mg/kg NBMPR-P i.p. injections every 8 hours on Days 0, 2, 4 and 5, in proportion of 0.1 ml/10 g. Mice were maintained under controlled temperature (25° C.) and light (12/12 hours, light/dark), food and water ad libitum, and survival was monitored daily.
Each mouse was infected with 200 tachyzoites and the treatment group received 100 mg/kg NBMPR-P i.p. injections every 8 hours on Days 0, 2, 4 and 5 in proportion of 0.1 ml/10 g. The survivorship of the treated mice can be improved by manipulation of the dose and regimen of NBMPR.

[5] = 5 μM, [5,6-3H]uracil incorporation
[6] = 10 μM, [5,6-3H]uracil incorporation
[7] = 25 μM, [5,6-3H]uracil incorporation
[8] = 50 μM, [5,6-3H]uracil incorporation
[9] = survivors/total, 100 mg/kg i.p. every 8 hours on Days 0, 2, 4 and 5

SMILES	viability at 48 h, 5 µM [1]	viability at 48 h, 10 µM [1]	viability at 48 h, 25 µM [1]	viability at 48 h, 50 µM [1]	activity at 5 µM [2, 5]	activity at 10 µM [2, 6]	activity at 25 µM [2, 7]	activity at 50 µM [2, 8]	Effect on host (mammalian) cells, in words ([3]; doses up to 100 μM)	Toxicity to host cells (human fibroblasts), in words [3]	life span of infected mice ([4]; increased from 6 days without treatment)	Survival Day 7 [4, 9]	Survival Day 8 [4, 9]	Survival Day 9 [4, 9]	Survival Day 6 ([4]; survivors/total, 100 mg/kg i.p. every 8 hours on Days 0, 2, 4 and 5, untreated 0/3)	Effect on T. gondii grown in human fibroblasts, in words ([2]; in vitro)	activity at 5 µM [2]	activity at 10 µM [2]	activity at 25 µM [2]	activity at 50 µM [2]
O=[N+]([O-])c1ccc(CNc2ncnc3c2ncn3[C@@H]2O[C@H](CO)[C@@H](O)[C@H]2O)cc1	104%	102%	92.3%	107%	35.9%	27.6%	21.6%	8.4%	–	–	–	–	–	–	–	–	–	–	–	–
O=C(Nc1ncnc2c1ncn2[C@@H]1O[C@H](CO)[C@@H](O)[C@H]1O)c1ccccc1 [Compound 44, N^6 -Benzoyladenosine]	94.4%	94.1%	97.6%	99.3%	96.4%	94.6%	112%	100%	–	–	–	–	–	–	–	–	–	–	–	–
Nc1ccc(CNc2ncnc3c2ncn3[C@@H]2O[C@H](CO)[C@@H](O)[C@H]2O)cc1 [Compound 46, N^6 -(p-Aminobenzyl)adenosine]	93.3%	91.9%	101%	101%	100%	95.6%	108%	120%	–	–	–	–	–	–	–	–	–	–	–	–
[N-]=[N+]=Nc1ccc(CNc2ncnc3c2ncn3[C@@H]2O[C@H](CO)[C@@H](O)[C@H]2O)cc1	97.3%	90.3%	88.9%	81.5%	36.9%	17%	15.1%	24.5%	–	–	–	–	–	–	–	–	–	–	–	–
Nc1ccc(S(=O)(=O)Nc2ncccn2)cc1 [Sulfadiazine, reference compound]	98.2%	99.7%	99.8%	102%	74.6%	64.8%	66.3%	66.3%	–	–	–	–	–	–	–	–	–	–	–	–
O=[N+]([O-])c1ccc(CSc2ncnc3c2ncn3[C@@H]2O[C@H](COP(=O)(O)O)[C@@H](O)[C@H]2O)cc1 [NBMPR-P, 6-[4-nitrobenzylthio]-9-β-D-ribofuranosyl purine 5'-monophosphate]	103%	94.6%	93.6%	96.1%	75.3%	53.3%	21.4%	10.2%	did not affect host cells; also recorded: without affecting mammalian cells	no significant toxic effect	8 days	3/3	2/3	0/3	3/3	inhibited; also recorded: kill T. gondii grown in human fibroblasts in a dose dependent manner; also recorded: effectively eliminate T. gondii parasites	–	–	–	–
OC[C@H]1O[C@@H](n2cnc3c(NCc4ccccc4)ncnc32)[C@H](O)[C@@H]1O [Compound 45, N^6 -Benzyladenosine]	46.3%	21.8%	36.5%	31%	62.8%	41.8%	52.9%	26.3%	–	toxic to host cells at therapeutic doses	–	–	–	–	–	–	–	–	–	–
O=[N+]([O-])c1ccc(C[Se]c2ncnc3c2ncn3[C@@H]2O[C@H](CO)[C@@H](O)[C@H]2O)cc1 [Compound 24, 6-(p-Nitrobenzyl)selenopurine riboside]	89.3%	90.1%	63.4%	39.6%	–	–	–	–	–	–	–	–	–	–	–	–	67.8%	3.03%	0%	0%
CCc1nc(N)nc(N)c1-c1ccc(Cl)cc1 [Pyrimethamine, reference compound]	104%	98.8%	108%	118%	25.9%	12.9%	10.2%	13.8%	–	–	–	–	–	–	–	–	–	–	–	–
COc1ccc(C(=O)Nc2ncnc3c2ncn3[C@@H]2O[C@H](CO)[C@@H](O)[C@H]2O)cc1 [Compound 47, N^6 -(p-Methoxybenzolyl)adenosine (N^6 -anisoyladenosine)]	92.9%	92.6%	99.2%	97.4%	94.2%	93.1%	104%	125%	–	–	–	–	–	–	–	–	–	–	–	–
